{
  "source": "paper PMC4418665",
  "about": "“Cyclization of the Urokinase Receptor-Derived Ser-Arg-Ser-Arg-Tyr Peptide Generates a Potent Inhibitor of Trans-Endothelial Migration of Monocytes” (PLoS ONE, 2015)",
  "key": {"primary macrophages": {"system": "primary macrophages", "experiment": "Primary macrophage migration in DUNN chamber", "format": "cell-based, human", "details": "10 nM peptide added to 10 nM fMLF gradient, 6 hours", "experimental": "The ability of [SRSRY] peptide to affect THP-1 cell migration was analyzed in Boyden chambers using 10 nM fMLF or 10 nM SRSRY as chemoattractants. […] Inhibitory effect of [SRSRY] is dose-dependent, it starts in the high fM range, it seems to level off in the μM range and reaches an overall 50% reduction at 10 pM (Fig 4B). […] The mechanisms by which monocytes move when subjected to a chemoattractant gradient, involve changes in cytoskeletal organization, which provide both protrusive and contractile forces necessary for cell migration. […] A total of 100 cells/sample that translocated to the area corresponding to the ring separating the inner and outer chambers were counted and their cytoskeletal organization examined with a fluorescence-inverted microscope. […] After 6 hours incubation, a total of 100 cells/sample that translocated to the area corresponding to the ring separating the inner and outer chambers were counted. […] Data are expressed as the means ± SD of three independent experiments, performed in duplicate. *Statistical significance against None with p<0.001. […] The extent of cell migration was expressed as a percentage of the net fMLF-dependent cell migration, considered as 100%. Data are expressed as the means ± SD of three independent experiments, performed in duplicate. […]"}, "human primary monocytes": {"system": "human primary monocytes", "experiment": "Primary monocyte migration in Boyden chambers", "format": "cell-based", "details": "10 nM peptide, 90 minutes"}},
  "note": "Peptide text beside a SMILES is read from it.",
  "data": [
    {"smiles": "N=C(N)NCCC[C@@H]1NC(=O)[C@H](CO)NC(=O)[C@H](Cc2ccc(O)cc2)NC(=O)[C@H](CCCNC(=N)N)NC(=O)[C@H](CO)NC1=O", "note": "[[SRSRY], [Ser-Arg-Ser-Arg-Tyr]] (cyclo(RSRYS))", "values": [
      {"measurement": "effect on fMLF-directed migration of primary macrophages", "setting": "primary macrophages", "value": "reduced migration of primary macrophages to the basal level"},
      {"measurement": "reduction of SRSRY-directed primary monocyte migration", "setting": "human primary monocytes; 10 nM SRSRY", "value": 49, "unit": "%"},
      {"measurement": "reduction of fMLF-directed primary monocyte migration", "setting": "human primary monocytes; 10 nM fMLF", "value": 50, "unit": "%"}
    ]}
  ]
}
